Assay results reported in patent publication US9549921B2, “Heterocyclic compounds and methods of use thereof for the treatment of hepatitis C” (priority 2014, dated 2017).
Where two headings read alike, the source gives them in different places.

What was measured:
[1] = system: HCV replicon genotype 1a; experiment: HCV replicon assay, genotype 1a (cell ELISA for NS3/4A); type: cell-based, hepatitis C virus
Procedure, shortened: (§1)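 Stable neomycin-resistant replicon cell lines (genotype 1a or 1b) incubated 96 h with compound dilution series without G418. After washing and lysis, replication measured by cell ELISA for replicon-encoded NS3/4A protein; IC50 as % of DMSO control via four-parameter fit.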

[2] = system: HCV replicon genotype 1b; experiment: HCV replicon assay, genotype 1b (cell ELISA for NS3/4A); type: cell-based, hepatitis C virus
Procedure, shortened: as §1

[3] = Hepatitis C virus, 96 h, read-out: 1a IC50 (nM), HCV genotype 1a replicon cells, 96 hours incubation, NS3/4A ELISA readout, % of DMSO control
[4] = Hepatitis C virus, 96 h, read-out: 1b IC50 (nM), HCV genotype 1b replicon cells, 96 hours incubation, NS3/4A ELISA readout, % of DMSO control

Q: CNC(=O)c1c(-c2ccc(F)cc2)oc2cc(N(C)S(C)(=O)=O)c([C@@H]3CCCN(C(=O)c4nc5ccccc5o4)C3)cc12 [Example 77, 5-[1-(1,3-benzoxazol-2-ylcarbonyl)piperidin-3-yl]-2-(4-fluorophenyl)-N-methyl-6-[methyl(methylsulfonyl)amino]-1-benzofuran-3-carboxamide] was tested. Which IC50 [1, 3] did it give?
A: 64.3 nM

Q: And the IC50 [2, 4]?
A: 19.2 nM

Q: How did the IC50 ([1]; read-out: 1a IC50, HCV genotype 1a replicon cells, 96 hours incubation, NS3/4A ELISA readout, % of DMSO control) turn out when CNC(=O)c1c(-c2ccc(F)cc2)oc2cc(N(C)S(C)(=O)=O)c([C@@H]3CCCN(C(=O)C4CC4c4ccccn4)C3)cc12 (some centres unmarked) [Example 78, 2-(4-fluorophenyl)-N-methyl-6-[methyl(methylsulfonyl)amino]-5-{1-[(2-pyridin-2-ylcyclopropyl)carbonyl]piperidin-3-yl}-1-benzofuran-3-carboxamide] was run?
A: 248 nM

Q: What about the IC50 ([2]; read-out: 1b IC50, HCV genotype 1b replicon cells, 96 hours incubation, NS3/4A ELISA readout, % of DMSO control) of the same compound?
A: 81.2 nM

Q: Which results are given for CNC(=O)c1c(-c2ccc(F)cc2)oc2cc(N(C)S(C)(=O)=O)c([C@H]3CCCN(S(=O)(=O)/C=C/c4ccccc4)C3)cc12 [Example 79, 2-(4-fluorophenyl)-N-methyl-6-[methyl(methylsulfonyl)amino]-5-[(3R)-1-{[(E)-2-phenylethenyl]sulfonyl}piperidin-3-yl]-1-benzofuran-3-carboxamide]?
A: IC50 [1, 3]: 64.8 nM; IC50 [2, 4]: 33.1 nM

Q: Which results are given for CNC(=O)c1c(-c2ccc(F)cc2)oc2cc(N(C)S(C)(=O)=O)c([C@H]3CCCN(S(=O)(=O)Cc4ccc(F)cc4)C3)cc12 [Example 80, 5-{(3R)-1-[(4-fluorobenzyl)sulfonyl]piperidin-3-yl}-2-(4-fluorophenyl)-N-methyl-6-[methyl(methylsulfonyl)amino]-1-benzofuran-3-carboxamide]?
A: IC50 [1, 3]: 3.17 nM; IC50 [2, 4]: 4.5 nM

Q: For CNC(=O)c1c(-c2ccc(F)cc2)oc2cc(N(C)S(C)(=O)=O)c([C@H]3CCCN(S(=O)(=O)Cc4ccccc4F)C3)cc12 [Example 81, 5-{(3R)-1-[(2-fluorobenzyl)sulfonyl]piperidin-3-yl}-2-(4-fluorophenyl)-N-methyl-6-[methyl(methylsulfonyl)amino]-1-benzofuran-3-carboxamide], which IC50 [1, 3] is on record?
A: 14.1 nM

Q: And the IC50 [2, 4]?
A: 11.6 nM

Q: How did the IC50 [1, 3] turn out when CNC(=O)c1c(-c2ccc(F)cc2)oc2cc(N(C)S(C)(=O)=O)c([C@H]3CCCN(S(=O)(=O)Cc4cccc(F)c4)C3)cc12 [Example 82, 5-{(3R)-1-[(3-fluorobenzyl)sulfonyl]piperidin-3-yl}-2-(4-fluorophenyl)-N-methyl-6-[methyl(methylsulfonyl)amino]-1-benzofuran-3-carboxamide] was run?
A: 2.2 nM

Q: What about the IC50 [2, 4] of the same compound?
A: 3.26 nM

Q: For CNC(=O)c1c(-c2ccc(F)cc2)oc2cc(N(C)S(C)(=O)=O)c([C@H]3CCCN(S(=O)(=O)c4cc5ccccc5o4)C3)cc12 [Example 83, 5-[(3R)-1-(1-benzofuran-2-ylsulfonyl)piperidin-3-yl]-2-(4-fluorophenyl)-N-methyl-6-[methyl(methylsulfonyl)amino]-1-benzofuran-3-carboxamide], which IC50 [1, 3] is on record?
A: 38.2 nM

Q: And the IC50 [2, 4]?
A: 22.4 nM

Q: With CNC(=O)c1c(-c2ccc(F)cc2)oc2cc(N(C)S(C)(=O)=O)c([C@H]3CCCN(S(=O)(=O)Cc4ccc(F)c(F)c4)C3)cc12 [Example 84, 5-{(3R)-1-[(3,4-difluorobenzyl)sulfonyl]piperidin-3-yl}-2-(4-fluorophenyl)-N-methyl-6-[methyl(methylsulfonyl)amino]-1-benzofuran-3-carboxamide] as the compound, how does the IC50 [1, 3] read?
A: 2.77 nM

Q: And the IC50 [2, 4]?
A: 3.04 nM

Q: Which IC50 [1, 3] does the source give for CNC(=O)c1c(-c2ccc(F)cc2)oc2cc(N(C)S(C)(=O)=O)c([C@H]3CCCN(C(=O)c4cc5cc(F)ccc5n4C)C3)cc12 [Example 85, 5-{(3R)-1-[(5-fluoro-1-methyl-1H-indol-2-yl)carbonyl]piperidin-3-yl}-2-(4-fluorophenyl)-N-methyl-6-[methyl(methylsulfonyl)amino]-1-benzofuran-3-carboxamide] here?
A: 26 nM

Q: What about the IC50 [2, 4] of the same compound?
A: 12.5 nM

Q: CNC(=O)c1c(-c2ccc(F)cc2)oc2cc(N(C)S(C)(=O)=O)c([C@H]3CCCN(C(=O)c4c(C)c5cc(F)ccc5n4C)C3)cc12 [Example 86, 5-{(3R)-1-[(5-fluoro-1,3-dimethyl-1H-indol-2-yl)carbonyl]piperidin-3-yl}-2-(4-fluorophenyl)-N-methyl-6-[methyl(methylsulfonyl)amino]-1-benzofuran-3-carboxamide] was tested. Which IC50 [1, 3] did it give?
A: 234 nM

Q: What about the IC50 [2, 4] of the same compound?
A: 115 nM

Q: With CNC(=O)c1c(-c2ccc(F)cc2)oc2cc(N(C)S(C)(=O)=O)c([C@H]3CCCN(C(=O)c4nc5ccccc5[nH]4)C3)cc12 [Example 87, 5-[(3R)-1-(1H-benzimidazol-2-ylcarbonyl)piperidin-3-yl]-2-(4-fluorophenyl)-N-methyl-6-[methyl(methylsulfonyl)amino]-1-benzofuran-3-carboxamide] as the compound, how does the IC50 [1, 3] read?
A: 267 nM

Q: What about the IC50 [2, 4] of the same compound?
A: 112 nM

Q: For CNC(=O)c1c(-c2ccc(F)cc2)oc2cc(N(C)S(C)(=O)=O)c([C@H]3CCCN(C(=O)c4cc5c(F)cccc5[nH]4)C3)cc12 [Example 88, 5-{(3R)-1-[(4-fluoro-1H-indol-2-yl)carbonyl]piperidin-3-yl}-2-(4-fluorophenyl)-N-methyl-6-[methyl(methylsulfonyl)amino]-1-benzofuran-3-carboxamide], which IC50 [1, 3] is on record?
A: 70.7 nM

Q: And the IC50 [2, 4]?
A: 38.7 nM

Q: For CNC(=O)c1c(-c2ccc(F)cc2)oc2cc(N(C)S(C)(=O)=O)c([C@H]3CCCN(C(=O)c4cc5cc(C(F)(F)F)ccc5n4C)C3)cc12 [Example 89, 2-(4-fluorophenyl)-N-methyl-6-[methyl(methylsulfonyl)amino]-5-[(3R)-1-{[1-methyl-5-(trifluoromethyl)-1H-indol-2-yl]carbonyl}piperidin-3-yl]-1-benzofuran-3-carboxamide], which IC50 [1, 3] is on record?
A: 84.4 nM

Q: And the IC50 [2, 4]?
A: 45.2 nM

Q: How did the IC50 [1, 3] turn out when CNC(=O)c1c(-c2ccc(F)cc2)oc2cc(N(C)S(C)(=O)=O)c([C@H]3CCCN(C(=O)c4cc5cc(F)ccc5[nH]4)C3)cc12 [Example 90, (R)-5-(1-(5-fluoro-1H-indole-2-carbonyl)piperidin-3-yl)-2-(4-fluorophenyl)-N-methyl-6-(N-methylmethylsulfonamido)benzofuran-3-carboxamide] was run?
A: 41.6 nM

Q: And the IC50 [2, 4]?
A: 20.7 nM

Q: Which results are given for CNC(=O)c1c(-c2ccc(F)cc2)oc2cc(N(C)S(C)(=O)=O)c([C@H]3CCCN(C(=O)c4cc5cccc(F)c5o4)C3)cc12 [Example 91, (R)-5-(1-(7-fluorobenzofuran-2-carbonyl)piperidin-3-yl)-2-(4-fluorophenyl)-N-methyl-6-(N-methylmethylsulfonamido)benzofuran-3-carboxamide]?
A: IC50 [1, 3]: 180 nM; IC50 [2, 4]: 62.6 nM

Q: CNC(=O)c1c(-c2ccc(F)cc2)oc2cc(N(C)S(C)(=O)=O)c([C@H]3CCCN(C(=O)c4nc5ccc(F)cc5[nH]4)C3)cc12 [Example 92, 5-{(3R)-1-[(6-fluoro-1H-benzimidazol-2-yl)carbonyl]piperidin-3-yl}-2-(4-fluorophenyl)-N-methyl-6-[methyl(methylsulfonyl)amino]-1-benzofuran-3-carboxamide] was tested. Which IC50 [1, 3] did it give?
A: 274 nM

Q: And the IC50 [2, 4]?
A: 97 nM

Q: Which results are given for CNC(=O)c1c(-c2ccc(F)cc2)oc2cc(N(C)S(C)(=O)=O)c([C@H]3CCCN(C(=O)c4nc5ccc(F)cc5s4)C3)cc12 [Example 93, 5-{(3R)-1-[(6-fluoro-1,3-benzothiazol-2-yl)carbonyl]piperidin-3-yl}-2-(4-fluorophenyl)-N-methyl-6-[methyl(methylsulfonyl)amino]-1-benzofuran-3-carboxamide]?
A: IC50 [1, 3]: 181 nM; IC50 [2, 4]: 102 nM

Q: What does the source list for CNC(=O)c1c(-c2ccc(F)cc2)oc2cc(N(C)S(C)(=O)=O)c([C@H]3CCCN(C(=O)[C@@H](NC(=O)OC(C)(C)C)c4ccccc4F)C3)cc12 [Example 94, tert-butyl {(1S)-1-(2-fluorophenyl)-2-[(3R)-3-{2-(4-fluorophenyl)-3-(methylcarbamoyl)-6-[methyl(methylsulfonyl)amino]-1-benzofuran-5-yl}piperidin-1-yl]-2-oxoethyl}carbamate]?
A: IC50 [1, 3]: 300 nM; IC50 [2, 4]: 168 nM

Q: For CNC(=O)c1c(-c2ccc(F)cc2)oc2cc(N(C)S(C)(=O)=O)c([C@H]3CCCN(C(=O)Cc4ccc5nccnc5c4)C3)cc12 [Example 95, 2-(4-fluorophenyl)-N-methyl-6-[methyl(methylsulfonyl)amino]-5-[(3R)-1-(quinoxalin-6-ylacetyl)piperidin-3-yl]-1-benzofuran-3-carboxamide], which IC50 [1, 3] is on record?
A: 176 nM

Q: What about the IC50 [2, 4] of the same compound?
A: 106 nM

Q: Which IC50 [1, 3] does the source give for CNC(=O)c1c(-c2ccc(F)cc2)oc2cc(N(C)S(C)(=O)=O)c([C@H]3CCCN(C(=O)c4nn(C)c(=O)c5ccccc45)C3)cc12 [Example 96, 2-(4-fluorophenyl)-N-methyl-6-[methyl(methylsulfonyl)amino]-5-{(3R)-1-[(3-methyl-4-oxo-3,4-dihydrophthalazin-1-yl)carbonyl]piperidin-3-yl}-1-benzofuran-3-carboxamide] here?
A: 423 nM

Q: What about the IC50 [2, 4] of the same compound?
A: 219 nM

Q: For CNC(=O)c1c(-c2ccc(F)cc2)oc2cc(N(C)S(C)(=O)=O)c([C@H]3CCCN(C(=O)c4n[nH]c(=O)c5ccccc45)C3)cc12 [Example 97, 2-(4-fluorophenyl)-N-methyl-6-[methyl(methylsulfonyl)amino]-5-{(3R)-1-[(4-oxo-3,4-dihydrophthalazin-1-yl)carbonyl]piperidin-3-yl}-1-benzofuran-3-carboxamide], which IC50 [1, 3] is on record?
A: 336 nM

Q: And the IC50 [2, 4]?
A: 470 nM

Q: Which results are given for CNC(=O)c1c(-c2ccc(F)cc2)oc2cc(N(C)S(C)(=O)=O)c([C@H]3CCCN(C(=O)C(c4ccccc4)N4CCOCC4)C3)cc12 (stereo partly drawn) [Example 98, 2-(4-fluorophenyl)-N-methyl-6-[methyl(methylsulfonyl)amino]-5-{(3R)-1-[morpholin-4-yl(phenyl)acetyl]piperidin-3-yl}-1-benzofuran-3-carboxamide]?
A: IC50 [1, 3]: 241 nM; IC50 [2, 4]: 112 nM
